Experimental data reported in PMC13382108 (Frontiers in Pharmacology, 2026).

Assay: In vivo pharmacokinetic study in rats (plasma, HPLC)
Conditions: SD rats, intragastric, FLU 40 mg/kg alone, as TF-1 (+48 mg/kg TDS) or TF-2 (+96 mg/kg TDS)
Experimental: A total of 25 healthy male SD rats were used. After adaptive feeding, rats were randomly divided into five groups (n = 5). […] Blood samples were placed in heparin-pretreated centrifuge tubes. Whole blood was centrifuged at 6,000 rpm for 3 min to separate plasma, which was stored at −20 °C or −80 °C for subsequent analysis. […] The mean plasma concentration-time curves were plotted. The non-compartmental model in DAS 2.1.1 software was used to calculate major pharmacokinetic parameters. The pharmacokinetic interactions after combined medication were evaluated by comparing parameters between monotherapy groups and TF combination groups.

With CNCCC(Oc1ccc(C(F)(F)F)cc1)c1ccccc1 (stereo not shown) [FLU, Fluoxetine] the “t1/2z of FLU” value was 6.563 h.
